Data: patent publication US10859565B2, “High throughput 3D assay for immune cell and drug homing, migration and tumor cytotoxicity” (Corning Incorporated, priority 2017, dated 2020)

Assays:
Format in all cases: cell-based
LN229 spheroids = assay: Cytotoxicity of LN229 spheroids after direct culture with compounds; conditions: 48 hours of direct culture; N=12 wells per concentration
NK-92MI cells = assay: NK-92MI (NK) cell migration through HTS Transwell towards A549/GFP 3D tumor spheroids, flow cytometry; conditions: 24 hours
Experimental: (§1) A549/GFP Cells (Cell Biolabs, Inc. Cat. No. AKR-209), were seeded into 96 well spheroid microplates (Corning Cat. No. 4515) at 2,000 cells per well in Iscove's Modification of DMEM (IMDM) (Corning Cat. No. 10-016-CM) supplemented with 10% fetal bovine serum (FBS) (Corning Cat. No. 35-010-CV). The next day, medium was replaced with […] IMDM 10% FBS containing 30 ng/mL of Human SDF-1 alpha (SDF-1α)/CXCL12 (Shenandoah Biotechnology Inc™ Cat. No. 100-20) or vehicle control. NK92-MI cells were stained for one hour with 80 μM CellTracker™ Blue CMHC Dye (Molecular Probes™ Cat. No. C2110) while simultaneously being treated with 2 μg/mL prostaglandin E2 (PGE2) (Tocris Cat. No. 2296) or vehicle control in IMDM without serum for an hour. NK-92MI cells were then re-suspended in serum free IMDM and seeded into the apical chamber of the inserts at 50,000 cells/insert. After 24 hours, inserts were removed and spheroid microplates were processed for flow cytometry. […] Cells were then analyzed via flow cytometry utilizing the Miltenyi Biotec MacsQuant®.
(§2) NK-92MI migration and tumoricidal activity of A549/GFP cells was assessed utilizing the commercially available Corning HTS 96 Transwell inserts with the Corning 96 well spheroid microplate, as shown in FIG. 4 and FIG. 5. […]

A549/GFP tumor cells = assay: NK induced cytotoxicity of A549/GFP tumor cells cultured in 3D; conditions: NK cells exposed to SDF-1α without PGE2; 24 hours
Experimental: as §1, §2

With `COc1cc(/C=C/C(=O)N2CCC=CC2=O)cc(OC)c1OC` [Piperlongumine] the “cytotoxicity of LN229 spheroids” value (LN229 spheroids) was “dose dependent cytotoxicity”.

With `CCCCC[C@H](O)/C=C/[C@H]1[C@H](O)CC(=O)[C@@H]1C/C=C\CCCC(=O)O` [PGE2, prostaglandin E2] the NK migration (NK-92MI cells; NK cells exposed to 2 μg/mL PGE2 for an hour) was “significantly decreased”.

In the case of SDF-1α, the NK migration (NK-92MI cells; 30 ng/mL SDF-1α present with the tumor spheroid in the spheroid microplate) is reported as “significantly increased” and the “viability of A549/GFP tumor cells (tumoricidal activity of NK cells)” value (A549/GFP tumor cells) is reported as “lowest viability”.
